The values below come from the NIST ThermoML archive (doi:10.1021/je9006585).

Numbers after ± are expanded uncertainties.

For this data set the following is noted: Crystal; visual observation.

As for `C[n+]1ccn(CCCn2cc[n+](C)c2)c1.F[P-](F)(F)(F)(F)F.F[P-](F)(F)(F)(F)F`, the Normal melting temperature is 142.2 ± 1.5 °C.
